In patent US11739074B2, “Ras inhibitors” (Revolution Medicines, Inc., priority 2019, dated 2023):
Like-named read-outs stand apart in the source and are kept apart here.

Experiments:
Assay type in all cases: cell-based
[1] = test system: AsPC-1 (K-Ras G12D); assay: Potency assay: pERK in AsPC-1 cells; conditions: Homo sapiens
[2] = test system: NCI-H358 (K-Ras G12C); assay: CellTiter-Glo cell viability assay, H358; conditions: Homo sapiens, NCI-H358, 120 h
Outline: (§1)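 Test compounds were dispensed directly onto seeded cells, and on day 5 plates were brought to room temperature for about 30 minutes before CellTiter-Glo luminescence was read. Signals were expressed as percent of the mean DMSO control and fitted with a four-parameter logistic model.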

[3] = test system: AsPC-1 (K-Ras G12D); assay: CellTiter-Glo cell viability assay, AsPC-1; conditions: Homo sapiens, ASPC1, 120 h
Outline: as §1

[4] = ASPC1, AsPC-1 cells, K-Ras G12D, read-out: pERK EC50 (AsPC-1 KRAS G12D)
[5] = NCI-H358, K-Ras G12C, 5-day treatment, read-out: H358 Cell Viability IC50
[6] = AsPC-1, K-Ras G12D, 5-day treatment, read-out: AsPC-1 Cell Viability IC50
[7] = ASPC1, read-out: pERK EC50 (AsPC-1 KRAS G12D)
[8] = read-out: H358 Cell Viability IC50, NCI-H358, K-Ras G12C, 5-day treatment
[9] = read-out: AsPC-1 Cell Viability IC50, AsPC-1, K-Ras G12D, 5-day treatment

SMILES	EC50 [1, 4] [µM]	IC50 [2, 5] [µM]	IC50 [3, 6] [µM]	EC50 [1, 7] [µM]	IC50 ([2]; read-out: H358 Cell Viability IC50) [µM]	IC50 ([3]; read-out: AsPC-1 Cell Viability IC50) [µM]	IC50 [2, 8] [µM]	IC50 [3, 9] [µM]
CCn1c(-c2cccnc2[C@H](C)OC)c2c3cc(ccc31)-c1csc(n1)C[C@H](NC(=O)[C@H](C(C)C)N(C)C(=O)N(C)CC1CN(C(=O)[C@H]3CN3)C1)C(=O)N1CCC[C@H](N1)C(=O)OCC(C)(C)C2 [Compound 293]	< 5	0.01 to 0.1	1 to 10	–	–	–	–	–
CCn1c(-c2cccnc2[C@H](C)OC)c2c3cc(ccc31)-c1csc(n1)C[C@H](NC(=O)[C@H](C(C)C)N(C)C(=O)N(C)CC1CN(C(=O)[C@@H]3CN3)C1)C(=O)N1CCC[C@H](N1)C(=O)OCC(C)(C)C2 [Compound 294]	< 5	0.1 to 1	1 to 10	–	–	–	–	–
CCn1c(-c2cccnc2[C@H](C)OC)c2c3cc(ccc31)-c1csc(n1)C[C@H](NC(=O)[C@H](C(C)C)N(C)C(=O)N(C)[C@H]1CCN(C(=O)[C@H]3CN3)C1)C(=O)N1CCC[C@H](N1)C(=O)OCC(C)(C)C2 [Compound 296]	< 5	0.01 to 0.1	1 to 10	–	–	–	–	–
CCn1c(-c2cccnc2[C@H](C)OC)c2c3cc(ccc31)-c1csc(n1)C[C@H](NC(=O)[C@H](C(C)C)N(C)C(=O)N1CCN(C(=O)[C@H]3CN3)[C@@H](C)C1)C(=O)N1CCC[C@H](N1)C(=O)OCC(C)(C)C2 [Compound 297]	< 5	0.01 to 0.1	0.1 to 1	–	–	–	–	–
CCn1c(-c2cccnc2[C@H](C)OC)c2c3cc(ccc31)-c1csc(n1)C[C@H](NC(=O)[C@H](C(C)C)N(C)C(=O)N1CCN(C(=O)[C@@H]3CN3)[C@@H](C)C1)C(=O)N1CCC[C@H](N1)C(=O)OCC(C)(C)C2 [Compound 298]	< 5	0.01 to 0.1	0.1 to 1	–	–	–	–	–
CCn1c(-c2cccnc2[C@H](C)OC)c2c3cc(ccc31)-c1csc(n1)C[C@H](NC(=O)[C@H](C(C)C)N(C)C(=O)N1CCN(C(=O)[C@H]3CN3)[C@H](C)C1)C(=O)N1CCC[C@H](N1)C(=O)OCC(C)(C)C2 [Compound 299]	< 5	< 0.01	0.1 to 1	–	–	–	–	–
CCn1c(-c2cccnc2[C@H](C)OC)c2c3cc(ccc31)-c1csc(n1)C[C@H](NC(=O)[C@H](C(C)C)N(C)C(=O)N1CCN(C(=O)[C@@H]3CN3)[C@H](C)C1)C(=O)N1CCC[C@H](N1)C(=O)OCC(C)(C)C2 [Compound 300]	< 5	0.01 to 0.1	0.1 to 1	–	–	–	–	–
CCn1c(-c2cccnc2[C@H](C)OC)c2c3cc(ccc31)-c1csc(n1)C[C@H](NC(=O)[C@H](C(C)C)N(C)C(=O)N1CCN(C(=O)[C@H]3CN3)C[C@H]1C)C(=O)N1CCC[C@H](N1)C(=O)OCC(C)(C)C2 [Compound 301]	< 5	< 0.01	0.1 to 1	–	–	–	–	–
CCn1c(-c2cccnc2[C@H](C)OC)c2c3cc(ccc31)-c1csc(n1)C[C@H](NC(=O)[C@H](C(C)C)N(C)C(=O)N1CCN(C(=O)[C@@H]3CN3)C[C@H]1C)C(=O)N1CCC[C@H](N1)C(=O)OCC(C)(C)C2 [Compound 302]	< 5	0.01 to 0.1	0.1 to 1	–	–	–	–	–
CCn1c(-c2cccnc2[C@H](C)OC)c2c3cc(ccc31)-c1cc(O)cc(c1)C[C@H](NC(=O)[C@H](C1CCCC1)N(C)C(=O)CN(C)C(=O)[C@H]1N[C@H]1C1(C#N)CC1)C(=O)N1CCC[C@H](N1)C(=O)OCC(C)(C)C2 [Compound 316]	< 5	0.01 to 0.1	1 to 10	–	–	–	–	–
CCn1c(-c2cccnc2[C@H](C)OC)c2c3cc(ccc31)-c1cc(O)cc(c1)C[C@H](NC(=O)[C@H](C1CCCC1)N(C)C(=O)CN(C)C(=O)[C@H]1[C@@H](C3CC3)N1CCCOC)C(=O)N1CCC[C@H](N1)C(=O)OCC(C)(C)C2 (stereo partly drawn) [Compound 317]	< 5	0.01 to 0.1	0.01 to 0.1	–	–	–	–	–
CCn1c(-c2cccnc2[C@H](C)OC)c2c3cc(ccc31)-c1cc(cc(C(F)F)c1)C[C@H](NC(=O)[C@H](C1CCCC1)N(C)C(=O)CN(C)C(=O)[C@@H]1N[C@@H]1C1CC1)C(=O)N1CCC[C@H](N1)C(=O)OCC(C)(C)C2 [Compound 320]	< 5	0.1 to 1	0.1 to 1	–	–	–	–	–
CCn1c(-c2cc(N3CCN(C)CC3)cnc2[C@H](C)OC)c2c3cc(ccc31)-c1cc(O)cc(c1)C[C@H](NC(=O)[C@H](C1CCCC1)N(C)C(=O)CN(C)C(=O)[C@@H]1N[C@@H]1C1CC1)C(=O)N1CCC[C@H](N1)C(=O)OCC(C)(C)C2 [Compound 325]	< 5	< 0.01	< 0.01	–	–	–	–	–
CCn1c(-c2cccnc2[C@H](C)OC)c2c3cc(ccc31)-c1csc(n1)C[C@H](NC(=O)[C@H](C(C)C)N(C)C(=O)N1CCC(CN(C)C(=O)[C@H]3CN3)CC1)C(=O)N1CCC[C@H](N1)C(=O)OCC(C)(C)C2 [Compound 326]	< 5	0.01 to 0.1	0.1 to 1	–	–	–	–	–
CCn1c(-c2cccnc2[C@H](C)OC)c2c3cc(ccc31)-c1cc(O)cc(c1)C[C@H](NC(=O)[C@H](C1CCCC1)N(C)C(=O)[C@H](C)N(C)C(=O)[C@@H]1N[C@@H]1C1CC1)C(=O)N1CCC[C@H](N1)C(=O)OCC(C)(C)C2 [Compound 328]	< 5	< 0.01	0.1 to 1	–	–	–	–	–
CCn1c(-c2cnccc2COC)c2c3cc(ccc31)-c1cc(O)cc(c1)C[C@H](NC(=O)[C@H](C(C)C)N(C)C(=O)[C@H]1CCN(C(=O)[C@H]3CN3)C1)C(=O)N1CCC[C@H](N1)C(=O)OCC(C)(C)C2 [Example 1, (3S)-1-((R)-aziridine-2-carbonyl)-N-((2S)-1-(((6^3S,4S)-1^1-ethyl-2^5-hydroxy-1^2-(4-(methoxymethyl)pyridin-3-yl)-10,10-dimethyl-5,7-dioxo-6^1,6^2,6^3,6^4,6^5,6^6-hexahydro-1^1H-8-oxa-1(5,3)-indola-6(1,3)-pyridazina-2(1,3)-benzenacycloundecaphane-4-yl)amino)-3-methyl-1-oxobutan-2-yl)-N-methylpyrrolidine-3-carboxamide]	< 5	< 0.01	1 to 10	–	–	–	–	–
CCn1c(-c2cnccc2COC)c2c3cc(ccc31)-c1cc(O)cc(c1)C[C@H](NC(=O)[C@H](C(C)C)N(C)C(=O)CN(C)C(=O)[C@H]1[C@@H](C(=O)OC)N1[S@+]([O-])C(C)(C)C)C(=O)N1CCC[C@H](N1)C(=O)OCC(C)(C)C2 (stereo partly drawn) [Example 48, methyl (2S,3R)-1-((R)-tert-butylsulfinyl)-3-((2-(((2S)-1-(((6^3S,4S)-1^1-ethyl-2^5-hydroxy-1^2-(4-(methoxymethyl)pyridin-3-yl)-10,10-dimethyl-5,7-dioxo-6^1,6^2,6^3,6^4,6^5,6^6-hexahydro-1^1H-8-oxa-1(5,3)-indola-6(1,3)-pyridazina-2(1,3)-benzenacycloundecaphane-4-yl)amino)-3-methyl-1-oxobutan-2-yl)(methyl)amino)-2-oxoethyl)(methyl)carbamoyl)aziridine-2-carboxylate]	–	–	–	< 5	0.1 to 1	1 to 10	–	–
CCn1c(-c2cnccc2COC)c2c3cc(ccc31)-c1cc(O)cc(c1)C[C@H](NC(=O)[C@H](C(C)C)N(C)C(=O)CN(C)C(=O)[C@@H]1N[C@@H]1C(=O)OC)C(=O)N1CCC[C@H](N1)C(=O)OCC(C)(C)C2 [Example 49, methyl (2S,3R)-3-((2-(((2S)-1-(((6^3S,4S)-1^1-ethyl-2^5-hydroxy-1^2-(4-(methoxymethyl)pyridin-3-yl)-10,10-dimethyl-5,7-dioxo-6^1,6^2,6^3,6^4,6^5,6^6-hexahydro-1^1H-8-oxa-1(5,3)-indola-6(1,3)-pyridazina-2(1,3)-benzenacycloundecaphane-4-yl)amino)-3-methyl-1-oxobutan-2-yl)(methyl)amino)-2-oxoethyl)(methyl)carbamoyl)aziridine-2-carboxylate]	–	–	–	< 5	–	–	1 to 10	1 to 10
CCn1c(-c2cccnc2[C@H](C)OC)c2c3cc(ccc31)-c1cc(O)cc(c1)C[C@H](NC(=O)[C@H](C1CCCC1)N(C)C(=O)CN(C)C(=O)[C@H]1CN1)C(=O)N1CCC[C@H](N1)C(=O)OCC(C)(C)C2 [Example 95, (2R)—N-(2-(((1S)-1-cyclopentyl-2-(((6^3S,4S)-1^1-ethyl-2^5-hydroxy-1^2-(2-((S)-1-methoxyethyl)pyridin-3-yl)-10,10-dimethyl-5,7-dioxo-6^1,6^2,6^3,6^4,6^5,6^6-hexahydro-1^1H-8-oxa-1(5,3)-indola-6(1,3)-pyridazina-2(1,3)-benzenacycloundecaphane-4-yl)amino)-2-oxoethyl)(methyl)amino)-2-oxoethyl)-N-methylaziridine-2-carboxamide]	–	–	–	< 5	–	–	< 0.01	0.01 to 0.1
CCn1c(-c2cccnc2[C@H](C)OC)c2c3cc(ccc31)-c1cc(O)cc(c1)C[C@H](NC(=O)[C@H](C(C)C)N(C)C(=O)CN(C)C(=O)[C@@H]1N[C@@H]1C1CC1)C(=O)N1CCC[C@H](N1)C(=O)OCC(C)(C)C2 [Example 133, (2R,3R)-3-cyclopropyl-N-(2-(((2S)-1-(((6^3S,4S)-1^1-ethyl-2^5-hydroxy-1^2-(2-((S)-1-methoxyethyl)pyridin-3-yl)-10,10-dimethyl-5,7-dioxo-6^1,6^2,6^3,6^4,6^5,6^6-hexahydro-1^1H-8-oxa-1(5,3)-indola-6(1,3)-pyridazina-2(1,3)-benzenacycloundecaphane-4-yl)amino)-3-methyl-1-oxobutan-2-yl)(methyl)amino)-2-oxoethyl)-N-methylaziridine-2-carboxamide]	–	–	–	< 5	–	–	0.01 to 0.1	0.01 to 0.1
